Here are results for 15 molecules from patent US20180022750A1, “6-HYDROXYBENZOFURANYL- AND 6-ALKOXYBENZOFURANYL-SUBSTITUTED IMIDAZOPYRIDAZINES” (BAYER PHARMA AKTIENGESELLSCHAFT, priority 2014, published 2018).

In assay [1] the target is T1, human full-length MKNK1 (Homo sapiens, UniProt Q9BUB5).
T1 construct: GST (Glutathione-S-Transferase) (N); purchased Carna Biosciences 02-145; host or cells: insect cells (baculovirus expression system)
The experiment in a line: MKNK1 kinase assay (TR-FRET, 10 μM ATP). It counts as biochemical. As to conditions: ATP 10 μM, 15 min preincubation, GST-MKNK1 (T344D). An excerpt: MKNK1-inhibitory activity of compounds of the present invention was quantified employing the MKNK1 TR-FRET assay as described in the following paragraphs.
A recombinant fusion protein of Glutathione-S-Transferase (GST, N-terminally) and human full-length MKNK1 (amino acids 1-424 and T344D of accession number BAA 19885.1), expressed in insect cells using baculovirus expression system and purified via glutathione sepharose affinity chromatography, was purchased from Carna Biosciences (product no 02-145) and used as enzyme. As substrate for the kinase reaction the biotinylated peptide biotin-Ahx-IKKRKLTRRKSLKG (C-terminus in amide form) was used which can be purchased e.g. form the company Biosyntan (Berlin-Buch, Germany).
(§1) For the assay 50 nL of a 100fold concentrated solution of the test compound in DMSO was pipetted into a black low volume 384well microtiter plate (Greiner Bio-One, Frickenhausen, Germany), 2 μL of a solution of MKNK1 in aqueous assay buffer [50 mM HEPES pH 7.5, 5 mM magnesium chloride, 1.0 mM dithiothreitol, 0.005% (v/v) Nonidet-P40 (Sigma)] was added and the mixture was incubated for 15 min at 22° C. to allow pre-binding of the test compounds to the enzyme before the start of the kinase reaction. Then the kinase reaction was started by the addition of 3 μL of a solution of adenosine-tri-phosphate (ATP, 16.7 μM=>final conc. in the 5 μL assay volume is 10 μM) and substrate (0.1 μM=>final conc. in the 5 μL assay volume is 0.06 μM) in assay buffer and the resulting mixture was incubated for a reaction time of 45 min at 22° C. The concentration of MKNK1 was adjusted depending of the activity of the enzyme lot and was chosen appropriate to have the assay in the linear range, typical concentrations were in the range of 0.05 μg/ml. The reaction was stopped by the addition of 5 μL of a solution of TR-FRET detection reagents (5 nM streptavidine-XL665 [Cisbio Bioassays, Codolet, France] and 1 nM anti-ribosomal protein S6 (pSer236)-antibody from Invitrogen [#44921G] and 1 nM LANCE EU-W1024 labeled ProteinG [Perkin-Elmer, product no. AD0071]) in an aqueous EDTA-solution (100 mM EDTA, 0.1% (w/v) bovine serum albumin in 50 mM HEPES pH 7.5).
(§2) The resulting mixture was incubated for 1 h at 22° C. to allow the formation of complex between the phosphorylated biotinylated peptide and the detection reagents. Subsequently the amount of phosphorylated substrate was evaluated by measurement of the resonance energy transfer from the Eu-chelate to the streptavidine-XL. Therefore, the fluorescence emissions at 620 nm and 665 nm after excitation at 350 nm were measured in a TR-FRET reader, e.g. a Rubystar (BMG Labtechnologies, Offenburg, Germany) or a Viewlux (Perkin-Elmer). The ratio of the emissions at 665 nm and at […] was taken as the measure for the amount of phosphorylated substrate. The data were normalised (enzyme reaction without inhibitor=0% inhibition, all other assay components but no enzyme=100% inhibition).
On the technique in general: Time-resolved FRET reads energy transfer from a long-lived donor to a nearby acceptor.

Assay [2] addresses T2, human full-length MKNK1 (Homo sapiens, UniProt Q9BUB5, T385D).
T2 construct: GST (Glutathione-S-Transferase) (N); purchased Carna Biosciences 02-145; host or cells: insect cells (baculovirus expression system)
As to the kind of experiment: MKNK1 kinase high ATP assay (TR-FRET, 2 mM ATP). It is filed as biochemical. As to conditions: ATP 2 mM, 15 min preincubation, GST-MKNK1 (T344D). As for the experimental part: MKNK1-inhibitory activity at high ATP of compounds of the present invention after their preincubation with MKNK1 was quantified employing the TR-FRET-based MKNK1 high ATP assay as described in the following paragraphs.
A recombinant fusion protein of Glutathione-S-Transferase (GST, N-terminally) and human full-length MKNK1 (amino acids 1-424 and T344D of accession number BAA 19885.1), expressed in insect cells using baculovirus expression system and purified via glutathione sepharose affinity chromatography, was purchased from Carna Biosciences (product no 02-145) and used as enzyme. As substrate for the kinase reaction the biotinylated peptide biotin-Ahx-IKKRKLTRRKSLKG (C-terminus in amide form) was used, which can be purchased e.g. from the company Biosyntan (Berlin-Buch, Germany).
as §1, with “3.3 mM=>final” for “16.7 μM=>final”, “2 mM)” for “10 μM)”, “30” for “45”, “0.003 μg/mL.” for “0.05 μg/ml.”
as §2

Each structure is given as a SMILES string.

T2 sequence (Q9BUB5 1-424 isoform Q9BUB5-2 T344D): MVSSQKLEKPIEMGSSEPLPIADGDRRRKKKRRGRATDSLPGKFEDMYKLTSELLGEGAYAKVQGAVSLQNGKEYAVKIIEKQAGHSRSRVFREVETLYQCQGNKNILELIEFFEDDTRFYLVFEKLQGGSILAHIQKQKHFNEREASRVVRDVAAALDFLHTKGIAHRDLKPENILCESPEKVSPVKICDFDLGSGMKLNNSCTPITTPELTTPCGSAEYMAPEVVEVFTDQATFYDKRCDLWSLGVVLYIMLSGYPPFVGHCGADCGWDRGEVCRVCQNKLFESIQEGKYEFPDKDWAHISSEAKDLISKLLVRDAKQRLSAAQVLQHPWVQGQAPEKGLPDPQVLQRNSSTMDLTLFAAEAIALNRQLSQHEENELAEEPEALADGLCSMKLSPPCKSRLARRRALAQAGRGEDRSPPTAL
T1 sequence (Q9BUB5 1-424 isoform Q9BUB5-2 T344D): as above

In the case of `COc1ccc2cc(-c3cnc4ccc(OCCCCN)nn34)oc2c1` [Example 8, 4-{[3-(6-methoxy-1-benzofuran-2-yl)imidazo[1,2-b]pyridazin-6-yl]oxy}butan-1-amine], the IC50 (usually the midpoint of a concentration-inhibition curve) was found to be 217 nM in assay [1] and 798 nM in assay [2].
On the same counts, the results for `COCCCOc1ccc2ncc(-c3cc4ccc(OC)cc4o3)n2n1` [Example 2, 3-(6-methoxy-1-benzofuran-2-yl)-6-(3-methoxypropoxy)imidazo[1,2-b]-pyridazine] are 864 nM and 5520 nM.
Taken in the same sequence, the figures for `COc1ccc2cc(-c3cnc4ccc(O[C@H](C)CN)nn34)oc2c1` [Example 15, (2R)-2-{[3-(6-methoxy-1-benzofuran-2-yl)imidazo[1,2-b]pyridazin-6-yl]oxy}-propan-1-amine] were 1320 nM and 2820 nM.
On the same counts, the results for `COc1ccc2cc(-c3cnc4ccc(OCCCN5CCOCC5)nn34)oc2c1` [Example 13, 3-(6-methoxy-1-benzofuran-2-yl)-6-[3-(morpholin-4-yl)propoxy]imidazo[1,2-b]-pyridazine] are 567 nM and 2130 nM.
In the case of `COc1ccc2cc(-c3cnc4ccc(OCCC5CCCN5C)nn34)oc2c1` (stereo not drawn) [Example 11, 3-(6-methoxy-1-benzofuran-2-yl)-6-[2-(1-methylpyrrolidin-2-yl)ethoxy]imidazo-[1,2-b]pyridazine], the IC50 in assay [1] worked out at 664 nM; in assay [2], 1150 nM.
`COc1ccc2cc(-c3cnc4ccc(OCCCN)nn34)oc2c1` [Example 6, 3-{[3-(6-methoxy-1-benzofuran-2-yl)imidazo[1,2-b]pyridazin-6-yl]oxy}propan-1-amine]: the values for the IC50 in assay [1] and in assay [2] were 343 nM and 913 nM, respectively.
Turning to `COc1ccc2cc(-c3cnc4ccc(OCC(C)(C)CN(C)C)nn34)oc2c1` [Example 7, 3-{[3-(6-methoxy-1-benzofuran-2-yl)imidazo[1,2-b]pyridazin-6-yl]oxy}-N,N,2,2-tetramethylpropan-1-amine], the 50% inhibitory concentration (IC50) is 5440 nM in assay [1] and 14800 nM in assay [2].
Regarding `COc1ccc2cc(-c3cnc4ccc(OCCN)nn34)oc2c1` [Example 3, 2-{[3-(6-methoxy-1-benzofuran-2-yl)imidazo[1,2-b]pyridazin-6-yl]oxy}ethanamine], the IC50 in assay [1] worked out at 977 nM; in assay [2], 2550 nM.
Regarding `COc1ccc2cc(-c3cnc4ccc(OCCCO)nn34)oc2c1` [Example 1, 3-{[3-(6-methoxy-1-benzofuran-2-yl)imidazo[1,2-b]pyridazin-6-yl]oxy}propan-1-ol], the 50% inhibitory concentration (IC50) in assay [1] was found to be 714 nM; in assay [2], 2570 nM.
Taken in the same sequence, the figures for `C[C@H](CN)Oc1ccc2ncc(-c3cc4ccc(O)cc4o3)n2n1` [Example 4, 2-(6-{[(2R)-1-aminopropan-2-yl]oxy}imidazo[1,2-b]pyridazin-3-yl)-1-benzofuran-6-ol] were 49.1 nM and 42.1 nM.
Taken in the same sequence, the figures for `COc1ccc2cc(-c3cnc4ccc(O[C@H](C)CNC(C)=O)nn34)oc2c1` [Example 14, N-[(2R)-2-{[3-(6-methoxy-1-benzofuran-2-yl)imidazo[1,2-b]pyridazin-6-yl]oxy}-propyl]acetamide] were 997 nM and 3810 nM.
On the same counts, the results for `CC(=O)NC[C@@H](C)Oc1ccc2ncc(-c3cc4ccc(O)cc4o3)n2n1` [Example 5, N-[(2R)-2-{[3-(6-hydroxy-1-benzofuran-2-yl)imidazo[1,2-b]pyridazin-6-yl]oxy}-propyl]acetamide] are 40.2 nM and 37.7 nM.
As to `CCN(CC)CCCC(C)Oc1ccc2ncc(-c3cc4ccc(OC)cc4o3)n2n1` (stereo not drawn) [Example 10, N,N-diethyl-4-{[3-(6-methoxy-1-benzofuran-2-yl)imidazo[1,2-b]pyridazin-6-yl]-oxy}pentan-1-amine], the results for the half-inhibitory concentration (IC50) in assay [1] and in assay [2] were 127 nM and 352 nM, respectively.
On the same counts, the results for `COc1ccc2cc(-c3cnc4ccc(OCCCCN(C)C)nn34)oc2c1` [Example 9, 4-{[3-(6-methoxy-1-benzofuran-2-yl)imidazo[1,2-b]pyridazin-6-yl]oxy}-N,N-dimethylbutan-1-amine] are 434 nM and 1010 nM.
Taken in the same sequence, the figures for `COc1ccc2cc(-c3cnc4ccc(OCCN5CCNC5=O)nn34)oc2c1` [Example 12, 1-(2-{[3-(6-methoxy-1-benzofuran-2-yl)imidazo[1,2-b]pyridazin-6-yl]oxy}ethyl)-imidazolidin-2-one] were 410 nM and 2390 nM.
